Results: US20100015576A1, “METHOD AND APPARATUS FOR DIAGNOSTIC AND TREATMENT USING HARD TISSUE OR MATERIAL MICROPERFORATION” (RejuveDent LLC, priority 2007, published 2010)

Key:
[1] = value used as input for the model calculation, cited from earlier work; for diffusion coefficient, peritubular: peritubular dentine; for diffusion coefficient, tubular: tubular dentine
[2] = in 14 hours; 33% hydrogen peroxide on micro-perforations
Method: One freshly extracted lower human incisor was used in the experiment. Immediately after extraction, the tooth was stored in a 0.1% w/w thymol solution at a temperature of +4-6° C. for 3 weeks.

[3] = In vivo whitening of teeth through laser microperforations

| pulp vitality (follow-up histopathology) ([3]; treated teeth, after extraction) | Compound | diffusion coefficient in intertubular dentine [1] | diffusion coefficient, peritubular [1] | diffusion coefficient, tubular [1] | brown discoloration of the root surface [2] | whitening effect (VITA scale) ([3]; Patient 1, 5 days after the procedure, peroxide 105 min at 37° C., 4 laser holes) | whitening effect (VITA scale) ([3]; Patient 1, 7 days after the procedure, peroxide 105 min at 37° C., 4 laser holes) | whitening effect (VITA scale) ([3]; Patients 2 and 3, 1 day after the procedure, peroxide 70 min / 45 min at 37° C.) | adverse effects on the oral mucosa ([3]; three patients) |
| --- | --- | --- | --- | --- | --- | --- | --- | --- | --- |
| – | O [water] | 1.74×10^−6 cm^2/sec | 1.74×10^−7 cm^2/sec | 1.74×10^−5 cm^2/sec | – | – | – | – | – |
| confirmed the vitality of the pulp | OO [hydrogen peroxide] | 3.6×10^−7 cm^2/sec | 3.6×10^−8 cm^2/sec | 3.6×10^−6 cm^2/sec | completely bleached | one shade | one more shade | two shades (A3 to A1) | didn't observe any adverse effects |
